# Tested on: HEP1 cell highly expressing CAR (coxsackie and adenovirus receptor)
# Assay: real-time monitoring of cell capacitance with the cell sensor, HEP1 cells
# Assay type: cell-based
# Text: The cell sensor 100 is connected to an LCR meter to measure capacitance, thereby monitoring potential changes of the cell 200 in real time. At this time, 10 mV of AC voltage at a frequency of 3 KHz is applied to the cell sensor 100. In this regard, the frequency of AC voltage applied to the cell sensor 100 may vary depending on the gap size between the first electrode 121 and the second electrode 122, and any frequency other than 3 KHz is also possible, as long as it is a low frequency.
# A method for monitoring a cell condition in real time using the cell sensor according to the preferred embodiment of the present invention is as follows.
# First, the aforementioned cell sensor is fabricated. The fabricated electrode is sterilized using autoclave equipment and ethanol, and then the well made of acryl or PDMS is attached on the electrode for cell culture.
# Next, cells grown to a predetermined density are harvested with trypsin-EDTA, and introduced and attached onto the gap area between the electrodes using a pipette.
# Subsequently, the cell-loaded electrodes are placed in a 5% CO2 cell culture incubator at 37° C. and incubated for 12 hrs, in order to tightly attach the cells onto the gap between the electrodes. During incubation, the cells are observed under an optical microscope, whether their conditions are suitable for the experiment.
# Thereafter, the fluidic channel is mounted onto the electrodes where the cells are tightly attached, and is fixed on the stage of an optical microscope, of which the bottom is maintained at 37° C. Then, a cell culture media and at least one of biomolecules, cell death-inducing agents and metal particles for observation of endocytosis or adsorption is introduced through the inlet of the fluidic channel. […]
# During the cell cultivation, capacitance between the first electrode and the second electrode is measured in real time, and thus endocytosis of the biomolecules into the cells through the cell surface receptor or adsorption is monitored in real time.
# [1] = HEP1 cells, pretreatment then virus 1*10^5 per chamber
Molecule,"capacitance after the initial peak, virus after pretreatment of the cells [1]",initial capacitance peak on virus endocytosis after pretreatment of the cells [1],"cell capacitance during cell death by cell death-inducing agent (HEP-1 cells, final concentration 50 ng/ml)"
NC(=O)c1ncn([C@@H]2O[C@H](CO)[C@@H](O)[C@H]2O)n1 [Ribavirin],the capacitance after the peak decreases,the initial peak appears,–
"TRAIL: cell death-inducing agent, TRAIL (TNF related apoptosis inducing ligand) (protein, UniProt P50591 1-281, looked up) Tumor necrosis factor ligand …: MAMMEVQGGPSLGQTCVLIVIFTVLLQSLCVAVTYVYFTNELKQMQDKYSKSGIACFLKEDDSYWDPNDEESMNSPCWQVKWQLRQLVRKMILRTSEETISTVQEKQQNISPLVRERGPQRVAAHITGTRGRSNTLSSPNSKNEKALGRKINSWESSRSGHSFLSNLHLRNGELVIHEKGFYYIYSQTYFRFQEEIKENTKNDKQMVQYIYKYTSYPDPILLMKSARNSCWSKDAEYGLYSIYQGGIFELKENDRIFVSVTNEHLIDMDHEASFFGAFLVG",–,–,capacitance decreases during cell death

# From patent US20120064513A1, “Cell Sensor, And Monitoring Method Using Same For The Real-Time Monitoring Of Cell Capacitance” (Industry-Acaddemic Cooperation Foundation, Yonsei …, priority 2009, published 2012)
